Data published in the NIST ThermoML archive (doi:10.1016/j.jct.2006.08.003).

Test: mn = molality of the nth substance listed, in mol/kg
Conditions: 298.15 K, 101 kPa, Liquid; for speed of sound: Sing-around technique in a fixed-path interferometer

N[C@@H](CO)C(=O)O [L-serine] + O
Conditions | mass density [kg/m3] | speed of sound [m/s]
m1 = 0.1015 | 1001.52 | 1503
m1 = 0.1508 | 1003.67 | 1506.1
m1 = 0.1958 | 1005.62 | 1509
m1 = 0.2564 | 1008.21 | 1512.7
m1 = 0.2888 | 1009.59 | 1514.9
m1 = 0.3655 | 1012.8 | 1519.8

C[C@@H](O)[C@H](N)C(=O)O [L-threonine] + O
Conditions | mass density [kg/m3] | speed of sound [m/s]
m1 = 0.04618 | 998.993 | –
m1 = 0.1013 | 1001.29 | 1504.7
m1 = 0.1405 | 1002.91 | 1507.7
m1 = 0.1798 | 1004.51 | 1510.9
m1 = 0.2227 | 1006.26 | 1514.3
m1 = 0.2524 | 1007.45 | 1516.6
m1 = 0.2755 | 1008.38 | 1518.7

CC(=O)[O-].CC(=O)[O-].[Mg+2] [magnesium acetate] + O
Conditions | speed of sound [m/s]
m1 = 0.5 | 1571.7
m1 = 1 | 1630.4
m1 = 1.5 | 1680.2
m1 = 2 | 1724.4

CC(=O)[O-].[Na+] [sodium ethanoate] + O
Conditions | speed of sound [m/s]
m1 = 0.5 | 1547.6
m1 = 1 | 1590.4
m1 = 2 | 1658
m1 = 4 | 1761.8
